Here are results for four compounds from paper PMC10064817 (Pharmaceutical Biology, 2023).

The conditions of series [1]: rat, in vivo, po; cited from earlier work.
The next series is described as follows: in vivo. The conditions noted are these: male, beagle, dog.
The format of series [2] is physicochemical. The note with it: 12 h. Here is the method: The LCMS system was operated using a LCMS-8060 (Shimadzu, Kyoto, Japan) equipped with a C18 reversed phase column, Synergi 4 µm Fusion-RP 80 Å 50 × 2 mm (Phenomenex, Torrance, CA). The column oven was maintained at 40 °C and operated using a mobile phase consisting of 0.2% formic acid in water (solvent A) and 100% methanol (solvent B), with a gradient system (0–0.5 min 10% B, 0.5–1.5 min increase to 90% B, 1.5–2.5 min 90% B, 2.5–3.5 min decrease to 10% B, 3.5–4.5 min 10% B), at a flow rate of 0.5 mL/min, with a 10 μL injection volume. The mass spectrometer was a triple quadrupole with negative mode electrospray ionization (ESI). […] All the operations, acquisition and analysis of data were controlled by LabSolution software version 5.86 (Shimadzu, Japan). The LCMS method was validated for accuracy, precision, recovery and stability according to the guidance on bioanalytical method validation recommended by the FDA (USFDA [2018]).

The conditions of series [3]: dog, in vivo, iv, 1 mg/kg.
The conditions of series [4]: predicted; ref PubChem [2004]; cited from earlier work.
In series [5] the test system is SARS-CoV-2-infected Vero E6 cells. On the set-up: method as in Kanjanasirirat et al. [2020]. The note with it: ref Kanjanasirirat et al. [2020]; cited from earlier work.
Series [6] deals with SARS-CoV-2-infected Calu-3 cells. On the set-up: method as in Sa-ngiamsuntorn et al. [2021]. The note with it: ref Sa-ngiamsuntorn et al. [2021]; cited from earlier work.
The test system of the next series is COVID-19. On the set-up: method as in Jayk Bernal et al. [2021]. The note with it: ref Jayk Bernal et al. [2021]; cited from earlier work.
A further series concerns SARS-CoV-2 infection. On the set-up: method as in Ansems et al. [2021]. The note with it: hospitalized patients with SARS-CoV-2 infection; ref Ansems et al. [2021]; cited from earlier work.

Read-outs that look alike come from different tables or passages of the source.

A word on the half-life: it is the time in which the quantity being followed falls by half. For orientation: AUC(0-inf) means the area under the concentration-time curve extrapolated to infinity. Lower therefore signals less exposure. As a reminder, the AUC(0-t) is the area under the concentration-time curve up to a stated or last time point. As a reminder, the MRT is the average time that molecules of a dose stay in the body. Usually Vd stands for the apparent volume that relates the amount in the body to the concentration in plasma or blood. A lower Vd goes with little distribution into tissue. In general, clearance refers to the rate of elimination divided by the concentration. One may read the Cmax as the highest concentration seen after dosing. In general, IC50 refers to the midpoint of a concentration-inhibition curve. Turning to `COc1cc(O)c(C(=O)[C@@H]2[C@H](CC=C(C)C)C(C)=CC[C@H]2c2ccccc2)c(O)c1` [Panduratin A, panduratin A], in series [1], the Tissue distribution entry is “distribution of panduratin A to various tissues, including skin, lung, heart, gum, liver, spleen, kidney and brain”. This compound also displayed a half-life in the series “in vivo” of 10 to 15 h. In “in vivo” (iv, 1 mg/kg), this compound had an AUC(0-inf) of 209 µg·h/mL, an AUC(0-t) of 181 µg·h/mL, an MRT of 23.9 ± 3.27 h and a Vd of 0.1 ± 0.01 L/kg. In “in vivo” (iv, 1 mg/kg), this compound had a clearance of 0.167 mL/min/kg, a concentration at 72 h of 0.1 to 0.2 µg/mL and a half-life of 15.2 h. The compound further registered a peak concentration (Cmax) in the series “in vivo” (iv, 1 mg/kg, Cmax) of about 100 µg/mL. In series [2] (10 µg/L), the “Stability, Accuracy (%RE)” value came to 9.75 %RE and the “Stability, mean concentration found” value stood at 10.98 µg/L. Also, in series [2] (150 µg/L), the “Stability, Accuracy (%RE)” value was 4.48 %RE and the “Stability, mean concentration found” value came out at 156.72 µg/L. For the same compound, in series [2] (600 µg/L), the “Stability, Accuracy (%RE)” value is reported as 4.76 %RE and the “Stability, mean concentration found” value stood at 628.57 µg/L. Also, in series [3], the ALT is on record as 44 ± 7 U/L, the AST is on record as 24 ± 6 U/L, the Alkaline phosphatase is 35 ± 4 U/L and the Blood urea nitrogen is listed as 11.9 ± 1.6 mg/dL. In [3], the Creatinine is reported as 0.6 ± 0.1 mg/dL, the Haemoglobin was 14.2 ± 1.3 g/dL, the Physical appearance entry is recorded as “Normal” and the Platelet is 241 ± 44 x 10^3/µL. Besides, in [3], the Red blood cell is reported as 6.03 ± 0.66 x 10^6/µL and the White blood cell is 7.83 ± 1.09 x 10^3/µL. In addition, in series [4], the Hydrogen bond acceptors result is “four” and the Hydrogen bond donors result is recorded as “two”. For the same compound, the 50% inhibitory concentration (IC50) in [5] was 810 nM.

As to `C=C1CC[C@@H]2[C@](C)(CO)[C@H](O)CC[C@@]2(C)[C@@H]1C/C=C1/C(=O)OC[C@H]1O` [andrographolide], the half-inhibitory concentration (IC50) in series [6] was 34 nM.

Turning to `CC(C)C(=O)OC[C@H]1O[C@@H](n2ccc(NO)nc2=O)[C@H](O)[C@@H]1O` [molnupiravir], the “Reduced rate of hospitalization or death compared to placebo” value in the series with COVID-19 is reported as 30%.

Turning to `CCC(CC)COC(=O)[C@H](C)N[P@](=O)(OC[C@H]1O[C@@](C#N)(c2ccc3c(N)ncnn23)[C@H](O)[C@@H]1O)Oc1ccccc1` [remdesivir, reference compound], in the series on SARS-CoV-2 infection, the “Effect on all-cause mortality at up to day 28” value is “little or no effect”. Besides, the IC50 in series [5] is 2710 nM.
